Values belong to the compound of their own block, whether it stands above or below them. Starred links: 1 amine or outer side, 2 acyl side, 3 side chain; linkers in the order of their positions; H or OH if unused. Non-standard residues stand in square brackets, D forms with d. Residues, ends and D or L forms follow the SMILES beside them. Groups on a side chain read outwards from the residue. *: point of attachment. γGlu = O=C(O)[C@H](CCC(=O)[*:2])N[*:1]; Palmitoyl = CCCCCCCCCCCCCCCC(=O)*; Aib = CC(C)(N)C(=O)O
What was measured:
[1] = molecular target: T1, GLP-1 receptor (Homo sapiens, UniProt P43220); assay: cAMP induction, firefly luciferase reporter assay, GLP-1 receptor; format: cell-based; settings: for Activity at GLP-1 Receptor % Relative Activity: compared to native GLP-1
T1 construct: expressed in transfected cells; host or cells: HEK293
T1 sequence (P43220 24-463): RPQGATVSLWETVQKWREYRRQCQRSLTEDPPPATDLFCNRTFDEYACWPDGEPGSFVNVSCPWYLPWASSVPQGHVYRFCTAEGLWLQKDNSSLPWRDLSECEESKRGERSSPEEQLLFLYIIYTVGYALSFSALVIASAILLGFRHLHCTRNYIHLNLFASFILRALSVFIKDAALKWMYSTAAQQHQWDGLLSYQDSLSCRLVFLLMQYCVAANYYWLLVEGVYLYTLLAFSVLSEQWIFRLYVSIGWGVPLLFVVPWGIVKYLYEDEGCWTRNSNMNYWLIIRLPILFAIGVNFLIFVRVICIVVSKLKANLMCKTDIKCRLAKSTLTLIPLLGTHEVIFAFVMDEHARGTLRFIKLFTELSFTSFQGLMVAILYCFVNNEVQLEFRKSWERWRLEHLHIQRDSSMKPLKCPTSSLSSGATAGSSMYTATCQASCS
Protocol: (§1) The ability of each peptide to induce cAMP was measured in a firefly luciferase-based reporter assay.
(§2) At the end of the incubation, 100 μL of LucLite luminescence substrate reagent (Perkin Elmer, Wellesley, Mass.) were added to each well. The plate was shaken briefly, incubated 10 min in the dark and light output was measured on MicroBeta-1450 liquid scintillation counter (Perkin-Elmer, Wellesley, Mass.).

[2] = molecular target: T2, glucagon receptor (Homo sapiens, UniProt P47871); assay: cAMP induction, firefly luciferase reporter assay, glucagon receptor; format: cell-based; settings: for Activity at Glucagon Receptor % Relative Activity: compared to native glucagon
T2 construct: expressed in transfected cells; host or cells: HEK293
T2 sequence (P47871 26-477): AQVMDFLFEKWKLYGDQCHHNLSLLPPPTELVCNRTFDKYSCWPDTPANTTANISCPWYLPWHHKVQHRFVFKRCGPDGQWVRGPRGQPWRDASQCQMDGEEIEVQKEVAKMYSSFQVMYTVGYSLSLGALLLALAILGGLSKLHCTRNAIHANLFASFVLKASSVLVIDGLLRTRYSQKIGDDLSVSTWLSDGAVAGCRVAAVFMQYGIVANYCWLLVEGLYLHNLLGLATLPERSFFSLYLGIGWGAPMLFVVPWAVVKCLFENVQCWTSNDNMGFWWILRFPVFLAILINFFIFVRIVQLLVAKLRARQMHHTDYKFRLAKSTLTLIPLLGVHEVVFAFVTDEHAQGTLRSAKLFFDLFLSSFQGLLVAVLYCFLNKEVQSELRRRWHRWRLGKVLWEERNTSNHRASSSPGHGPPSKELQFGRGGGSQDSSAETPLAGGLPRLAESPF
Protocol: as §1, §2

[3] = EC50 (nM) at GLP-1 Receptor, Table 7B
[4] = Activity at GLP-1 Receptor EC50 [nM], Table 6

- EC50 [1, 3]: 0.013 nM
Structure (SMILES): CC[C@H](C)[C@H](NC(=O)[C@H](Cc1ccccc1)NC(=O)[C@H](CC(C)C)NC(=O)[C@H](CCCNC(=N)N)NC(=O)[C@@H](NC(=O)[C@H](C)NC(=O)[C@H](CCC(N)=O)NC(=O)[C@H](CCC(=O)O)NC(=O)[C@H](CC(=O)O)NC(=O)[C@H](CC(C)C)NC(=O)[C@H](Cc1ccc(O)cc1)NC(=O)[C@H](CCCCN)NC(=O)[C@H](CO)NC(=O)[C@H](Cc1ccc(O)cc1)NC(=O)[C@H](CC(=O)O)NC(=O)[C@H](CO)NC(=O)[C@@H](NC(=O)[C@H](Cc1ccccc1)NC(=O)[C@@H](NC(=O)CNC(=O)[C@H](CCC(N)=O)NC(=O)[C@@H](CO)NC(=O)[C@@H](N)Cc1c[nH]cn1)[C@@H](C)O)[C@@H](C)O)C(C)C)C(=O)N[C@@H](CS)C(=O)N[C@@H](Cc1c[nH]c2ccccc12)C(=O)N[C@@H](CC(C)C)C(=O)N[C@@H](CC(C)C)C(=O)N[C@@H](CC(=O)O)C(=O)N[C@H](C(N)=O)[C@@H](C)O [compound 87] (H-H[dS]QGTFTSDYSKYLDEQAVRLFICWLLDT-NH2; N-terminus assumed)

- EC50 [1, 4]: 0.019 nM
- Activity at GLP-1 Receptor % Relative Activity ([1]; Table 6): 484%
- Activity at Glucagon Receptor % Relative Activity ([2]; Table 6): 490%
Structure (SMILES): CCCCCCCCCCCCCCCC(=O)N[C@@H](CCC(=O)NCCCC[C@H](NC(=O)[C@H](CC(=O)O)NC(=O)[C@H](CO)NC(=O)[C@@H](NC(=O)[C@H](Cc1ccccc1)NC(=O)[C@@H](NC(=O)CNC(=O)[C@H](CCC(N)=O)NC(=O)[C@@H](C)NC(=O)[C@@H](N)Cc1c[nH]cn1)[C@@H](C)O)[C@@H](C)O)C(=O)N[C@@H](CO)C(=O)N[C@@H](CCCCN)C(=O)N[C@@H](Cc1ccc(O)cc1)C(=O)N[C@@H](CC(C)C)C(=O)N[C@@H](CC(=O)O)C(=O)N[C@@H](CCC(=O)O)C(=O)N[C@@H](CCCNC(=N)N)C(=O)N[C@@H](C)C(=O)N[C@@H](C)C(=O)N[C@@H](CCC(N)=O)C(=O)N[C@@H](CC(=O)O)C(=O)N[C@@H](Cc1ccccc1)C(=O)N[C@H](C(=O)N[C@@H](CS)C(=O)N[C@@H](Cc1c[nH]c2ccccc12)C(=O)N[C@@H](CC(C)C)C(=O)N[C@@H](CC(C)C)C(=O)N[C@@H](CC(=O)O)C(=O)N[C@H](C(N)=O)[C@@H](C)O)C(C)C)C(=O)O [compound 59]

- EC50 [1, 4]: 0.004 nM
- EC50 ([1]; Activity at GLP-1 Receptor EC50 [pM], Table 3A): 0.0039 nM
- Activity at GLP-1 Receptor % Relative Activity ([1]; Table 3A): 949%
- Activity at GLP-1 Receptor % Relative Activity ([1]; Table 6): 949%
- EC50 ([2]; Activity at Glucagon Receptor EC50 [nM], Table 6): 0.004 nM
- EC50 ([2]; Activity at Glucagon Receptor EC50 [pM], Table 3A): 0.0035 nM
- Activity at Glucagon Receptor % Relative Activity ([2]; Table 3A): 314%
- Activity at Glucagon Receptor % Relative Activity ([2]; Table 6): 314%
Structure (SMILES): CCCCCCCCCCCCCCCC(=O)N[C@@H](CCC(=O)NCCCC[C@H](NC(=O)[C@H](CC(=O)O)NC(=O)[C@H](CO)NC(=O)[C@@H](NC(=O)[C@H](Cc1ccccc1)NC(=O)[C@@H](NC(=O)CNC(=O)[C@H](CCC(N)=O)NC(=O)[C@@H](CO)NC(=O)[C@@H](N)Cc1c[nH]cn1)[C@@H](C)O)[C@@H](C)O)C(=O)N[C@@H](CO)C(=O)N[C@@H](CCCCN)C(=O)N[C@@H](Cc1ccc(O)cc1)C(=O)N[C@@H](CC(C)C)C(=O)N[C@@H](CC(=O)O)C(=O)N[C@@H](CCC(=O)O)C(=O)N[C@@H](CCCNC(=N)N)C(=O)N[C@@H](C)C(=O)N[C@@H](C)C(=O)N[C@@H](CCC(N)=O)C(=O)N[C@@H](CC(=O)O)C(=O)N[C@@H](Cc1ccccc1)C(=O)N[C@H](C(=O)N[C@@H](CCC(N)=O)C(=O)N[C@@H](Cc1c[nH]c2ccccc12)C(=O)N[C@@H](CC(C)C)C(=O)N[C@@H](CC(C)C)C(=O)N[C@@H](CC(=O)O)C(=O)N[C@H](C(N)=O)[C@@H](C)O)C(C)C)C(=O)O [compound 51]

- Activity at Glucagon Receptor % Relative Activity ([2]; Table 5): 1%
Structure (SMILES): CCCCCCCCCCCCCCCC(=O)N[C@@H](CCC(=O)NCCCC[C@H](NC(=O)[C@H](CC(=O)O)NC(=O)[C@H](CO)NC(=O)[C@@H](NC(=O)[C@H](Cc1ccccc1)NC(=O)[C@@H](NC(=O)CNC(=O)[C@H](CCC(N)=O)NC(=O)[C@H](CO)NC(=O)[C@H](Cc1c[nH]cn1)NC(C)=O)[C@@H](C)O)[C@@H](C)O)C(=O)N[C@@H](CO)C(=O)N[C@@H](CCCCN)C(=O)N[C@@H](Cc1ccc(O)cc1)C(=O)N[C@@H](CC(C)C)C(=O)N[C@@H](CC(=O)O)C(=O)N[C@@H](CCC(=O)O)C(=O)N[C@@H](CCC(N)=O)C(=O)N[C@@H](C)C(=O)N[C@@H](C)C(=O)N[C@@H](CCCCN)C(=O)N[C@@H](CCC(=O)O)C(=O)N[C@@H](Cc1ccccc1)C(=O)N[C@H](C(=O)N[C@@H](CS)C(=O)N[C@@H](Cc1c[nH]c2ccccc12)C(=O)N[C@@H](CC(C)C)C(=O)N[C@@H](CC(C)C)C(=O)N[C@@H](CC(=O)O)C(=O)N[C@H](C(N)=O)[C@@H](C)O)[C@@H](C)CC)C(=O)O [compound 57] (Ac-HSQGTFTSDK([γGlu-Palmitoyl])SKYLDEQAAKEFICWLLDT-NH2)

- EC50 [1, 3]: 0.024 nM
Structure (SMILES): CCCCCCCCCCCCCCCC(=O)NCCCC[C@H](NC(=O)[C@H](CC(=O)O)NC(=O)[C@H](CO)NC(=O)[C@@H](NC(=O)[C@H](Cc1ccccc1)NC(=O)[C@@H](NC(=O)CNC(=O)[C@H](CCC(N)=O)NC(=O)C(C)(C)NC(=O)[C@@H](N)Cc1c[nH]cn1)[C@@H](C)O)[C@@H](C)O)C(=O)N[C@@H](CO)C(=O)N[C@@H](CCCCN)C(=O)N[C@@H](Cc1ccc(O)cc1)C(=O)N[C@@H](CC(C)C)C(=O)N[C@@H](CC(=O)O)C(=O)N[C@@H](CCC(=O)O)C(=O)N[C@@H](CCC(=O)O)C(=O)N[C@@H](C)C(=O)N[C@H](C(=O)N[C@@H](CCCNC(=N)N)C(=O)N[C@@H](CC(C)C)C(=O)N[C@@H](Cc1ccccc1)C(=O)N[C@H](C(=O)N[C@@H](CCC(=O)O)C(=O)N[C@@H](Cc1c[nH]c2ccccc12)C(=O)N[C@@H](CC(C)C)C(=O)N[C@@H](CCSC)C(=O)N[C@@H](CC(N)=O)C(=O)N[C@H](C(N)=O)[C@@H](C)O)[C@@H](C)CC)C(C)C [compound 40] (H-H[Aib]QGTFTSDK(Palmitoyl)SKYLDEEAVRLFIEWLMNT-NH2; N-terminus assumed)

- EC50 [1, 3]: 0.019 nM
Structure (SMILES): CCCCCCCCCCCCCCCC(=O)N[C@@H](CCC(=O)NCCCC[C@H](NC(=O)[C@H](CC(=O)O)NC(=O)[C@H](CO)NC(=O)[C@@H](NC(=O)[C@H](Cc1ccccc1)NC(=O)[C@@H](NC(=O)CNC(=O)[C@H](CCC(N)=O)NC(=O)C(C)(C)NC(=O)[C@@H](N)Cc1c[nH]cn1)[C@@H](C)O)[C@@H](C)O)C(=O)N[C@@H](CO)C(=O)N[C@@H](CCCCN)C(=O)N[C@@H](Cc1ccc(O)cc1)C(=O)N[C@@H](CC(C)C)C(=O)N[C@@H](CC(=O)O)C(=O)N[C@@H](CCC(=O)O)C(=O)N[C@@H](CCC(=O)O)C(=O)N[C@@H](C)C(=O)N[C@H](C(=O)N[C@@H](CCCNC(=N)N)C(=O)N[C@@H](CC(C)C)C(=O)N[C@@H](Cc1ccccc1)C(=O)N[C@H](C(=O)N[C@@H](CCC(=O)O)C(=O)N[C@@H](Cc1c[nH]c2ccccc12)C(=O)N[C@@H](CC(C)C)C(=O)N[C@@H](CCSC)C(=O)N[C@@H](CC(N)=O)C(=O)N[C@H](C(N)=O)[C@@H](C)O)[C@@H](C)CC)C(C)C)C(=O)O [compound 38] (H-H[Aib]QGTFTSDK([γGlu-Palmitoyl])SKYLDEEAVRLFIEWLMNT-NH2; N-terminus assumed)

- EC50 ([1]; GLP-1 Receptor EC50 (nM), Table 1, HEK293 cells co-transfected with receptor and CRE-luciferase): 0.13 nM
Structure (SMILES): CSCC[C@H](NC(=O)[C@H](CC(C)C)NC(=O)[C@H](Cc1c[nH]c2ccccc12)NC(=O)[C@H](CCC(N)=O)NC(=O)[C@@H](NC(=O)[C@H](Cc1ccccc1)NC(=O)[C@H](CCC(=O)O)NC(=O)[C@H](CCC(N)=O)NC(=O)[C@H](C)NC(=O)[C@H](CCCNC(=N)N)NC(=O)[C@H](CCCCN)NC(=O)[C@H](CO)NC(=O)[C@H](CC(=O)O)NC(=O)[C@H](CC(C)C)NC(=O)[C@H](Cc1ccc(O)cc1)NC(=O)[C@H](CCCCN)NC(=O)[C@H](CO)NC(=O)[C@H](Cc1ccc(O)cc1)NC(=O)[C@H](CC(=O)O)NC(=O)[C@H](CO)NC(=O)[C@@H](NC(=O)[C@H](Cc1ccccc1)NC(=O)[C@@H](NC(=O)CNC(=O)[C@H](CCC(N)=O)NC(=O)[C@H](CO)NC(=O)[C@@H](N)Cc1c[nH]cn1)[C@@H](C)O)[C@@H](C)O)C(C)C)C(=O)N[C@@H](CC(N)=O)C(=O)N[C@H](C(N)=O)[C@@H](C)O [Peptide 1]

- EC50 ([1]; Activity at GLP-1 Receptor EC50 (nM), Table 2A): 0.048 nM
Structure (SMILES): CSCC[C@H](NC(=O)[C@H](CC(C)C)NC(=O)[C@H](Cc1c[nH]c2ccccc12)NC(=O)[C@H](CCC(N)=O)NC(=O)[C@@H](NC(=O)[C@H](Cc1ccccc1)NC(=O)[C@H](CCC(=O)O)NC(=O)[C@H](CCCCN)NC(=O)[C@H](C)NC(=O)[C@H](CCCNC(=N)N)NC(=O)[C@H](CCCCN)NC(=O)C(C)(C)NC(=O)[C@H](CC(=O)O)NC(=O)[C@H](CC(C)C)NC(=O)[C@H](Cc1ccc(O)cc1)NC(=O)[C@H](CCCCN)NC(=O)[C@H](CO)NC(=O)[C@H](Cc1ccc(O)cc1)NC(=O)[C@H](CC(=O)O)NC(=O)[C@H](CO)NC(=O)[C@@H](NC(=O)[C@H](Cc1ccccc1)NC(=O)[C@@H](NC(=O)CNC(=O)[C@H](CCC(N)=O)NC(=O)[C@@H](CO)NC(=O)[C@@H](N)Cc1c[nH]cn1)[C@@H](C)O)[C@@H](C)O)C(C)C)C(=O)N[C@@H](CC(N)=O)C(=O)N[C@H](C(N)=O)[C@@H](C)O [compound 21]

Source: patent publication US8703701B2 (Indiana University Research and Technology Corporation, priority 2009, dated 2014)
